These results are taken from patent US7176219B2, “Salts of quinuclidine derivative” (priority 2005, dated 2007).

SMILES strings stand for the structures.

The target in one data set is muscarinic M3 receptors (Homo sapiens, UniProt P20309). To be noted: made public in Patent document 1 (EP 0 801 067); cited from earlier work.
Data set [1] in a line: Evaluation of hygroscopicity (dynamic steam adsorption, weight change). Format: physicochemical. To be noted: for Deliquescence during water absorption measurement: 5–95% relative humidity; for Deliquescence during water absorption measurement / Weight Change (%): hydrochloride; for Weight Change (%): within the range 5–95% relative humidity. Here is the method: A sample (about 5 mg) was placed in a purpose-made quartz holder, and the sample weight at the respective humidity was continuously measured and recorded in the following conditions. The apparatus including data processing was operated according to the method and procedure directed in each device. (Apparatus: dynamic steam adsorption measuring apparatus DVS Advantage, made by SMS)

Data set [2] in a line: Evaluation of stability (1): forced degradation test, impurities by LC. Here is the method:
A sample after storage was dissolved in 1 mL of MeOH and used as a sample solution. The sample solution was diluted 100 times with MeOH and used as a standard solution. Impurities contained in the sample solution was quantitatively analyzed using the standard solution. In this determination, the apparatus including data processing was operated according to the method and procedure directed in each device. (Apparatus: LC-MSD 1100 series, made by Agilent)

The nature of data set [3]: Evaluation of stability (2): stress testing, impurities by LC, UV at 210 nm. It counts as physicochemical. As to the method:
A sample (about 5 mg) was weighed in a glass mess-flask of 10 mL and applied to a stress testing in the following storage conditions. • Condition 1: 5° C.—shading—tightly closed • Condition 2: 40° C.—relative humidity 75%—open • Condition 3: 60° C.—shading—tightly closed • Condition 4: 80° C.—shading—tightly closed • Condition 5: 25° C.—D65 (1000 lux)—tightly closed
Chemical stability: After storage, MeOH was placed in the mess-flask containing the sample up to the level of the marked line, and the resulting solution was used as a sample solution. The sample solution was diluted 100 times with MeOH to prepare a standard solution, which was used in determination of impurities contained in the sample solution. Detection of the impurities was performed by means of UV at 210 nm. […] (Apparatus: LC-MSD 1100 series, made by Agilent)

The nature of data set [4]: Hygroscopicity and long-term storage of the known hydrochloride (disclosure section). It counts as physicochemical.
Where [5] appears, read: 25° C., listed as Compound A hydrochloride.

Chain of muscarinic M3 receptors (P20309 whole entry): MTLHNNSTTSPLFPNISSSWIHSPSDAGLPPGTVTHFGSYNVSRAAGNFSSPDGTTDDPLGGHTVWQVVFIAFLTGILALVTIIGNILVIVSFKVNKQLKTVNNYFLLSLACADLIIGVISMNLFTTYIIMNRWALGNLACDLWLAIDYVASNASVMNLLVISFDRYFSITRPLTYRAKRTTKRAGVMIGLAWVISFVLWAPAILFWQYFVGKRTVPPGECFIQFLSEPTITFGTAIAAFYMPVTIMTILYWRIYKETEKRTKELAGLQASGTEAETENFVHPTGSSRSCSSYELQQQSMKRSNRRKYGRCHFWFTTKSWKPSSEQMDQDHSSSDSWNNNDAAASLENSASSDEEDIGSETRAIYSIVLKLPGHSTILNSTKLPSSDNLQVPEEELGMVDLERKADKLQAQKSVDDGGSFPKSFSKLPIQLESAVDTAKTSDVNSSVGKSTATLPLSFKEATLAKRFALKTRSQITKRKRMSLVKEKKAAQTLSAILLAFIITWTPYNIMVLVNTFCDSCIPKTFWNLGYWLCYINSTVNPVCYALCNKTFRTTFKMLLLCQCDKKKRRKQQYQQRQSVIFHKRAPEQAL

With `O=C(O[C@H]1CN2CCC1CC2)N1CCc2ccccc2[C@H]1c1ccccc1` [Compound A, (−)-(3R)-quinuclidin-3-yl(1R)-1-phenyl-1,2,3,4-tetrahydroisoquinoline-2-carboxylate], the “Affinity and selectivity for muscarinic M3 receptors” value at muscarinic M3 receptors is “displays an affinity and selectivity for muscarinic M3 receptors”.

Consider `Cl.O=C(O[C@H]1CN2CCC1CC2)N1CCc2ccccc2[C@@H]1c1ccccc1` [Reference Example 2, Compound A hydrochloride, reference compound], for which the “Deliquescence during water absorption measurement” value in data set [1] (25° C.) is listed as “deliquescent”; in data set [1] (setting [5]), “accompanied by deliquescence”. For the same molecule, the “Relative humidity at which rapid moisture uptake began” value in data set [1] (25° C., FIG. 1) is recorded as “about 65 % relative humidity”. The “Weight Change (%)” value in data set [1] (25° C.) was over 35%; in data set [1] (setting [5]), “exceeded 35%”. Also, in data set [1] (at 75% or more relative humidity), the “Weight gain by absorption of moisture” value is reported as at least 15%. For the same molecule, in data set [2] (25° C., NUV (near ultraviolet ray) irradiated, tightly closed, 5 days), the “Change from Impurity Amt. before Storage (%), Condition 3” value amounted to 2.0%. In data set [2] (25° C., relative humidity 93%, open, 5 days), the “Change from Impurity Amt. before Storage (%), Condition 2” value stood at 3.8%. For the same molecule, the “Change from Impurity Amt. before Storage (%), Condition 1” value in data set [2] (120° C., tightly closed, 24 hours) came to 0.2%. In data set [2] (Condition 2 in Test Example 2 and Condition 2 in Test Example 3), the “Stability to humidity” value was “not so stable to humidity”. Moreover, the “Stability to light” value in data set [2] (Condition 3 in Test Example 2 and Condition 5 in Test Example 3) is “not so stable”. Further, the “Increase of impurities during storage” value in data set [2] (Table 2 and Table 3) is recorded as “impurities increased during storage”. Moreover, the “Impurities before Storage (%)” value in data set [2] (before storage) is 0.1%. The “Impurities (%)” value in data set [3] (Condition 1: 5° C., shading, tightly closed, 1 month) was found to be 0.21%; in data set [3] (Condition 1: 5° C., shading, tightly closed, 2 months) it was 0.18%; in data set [3] (Condition 1: 5° C., shading, tightly closed, 2 weeks), 0.25%; in data set [3] (Condition 2: 40° C., relative humidity 75%, open, 1 month), 8.19%; in data set [3] (Condition 2: 40° C., relative humidity 75%, open, 2 months), 9.20%; in data set [3] (Condition 2: 40° C., relative humidity 75%, open, 2 weeks), 8.72%. Besides, the “Impurities (%)” value in data set [3] (Condition 3: 60° C., shading, tightly closed, 1 month) is 0.22%; in data set [3] (Condition 3: 60° C., shading, tightly closed, 2 months) it was 0.24%; in data set [3] (Condition 3: 60° C., shading, tightly closed, 2 weeks), 0.34%; in data set [3] (Condition 4: 80° C., shading, tightly closed, 1 month), 0.39%; in data set [3] (Condition 4: 80° C., shading, tightly closed, 2 months) it was 0.47%; in data set [3] (Condition 4: 80° C., shading, tightly closed, 2 weeks), 0.43%. For the same molecule, the “Impurities (%)” value is 2.38% in data set [3] (Condition 5: 25° C., D65 (1000 lux), tightly closed, 1 month); 3.68% in data set [3] (Condition 5: 25° C., D65 (1000 lux), tightly closed, 2 months); 1.73% in data set [3] (Condition 5: 25° C., D65 (1000 lux), tightly closed, 2 weeks). For the same molecule, the “Impurities during long-term storage” value in data set [4] (long-term storage) is recorded as “increase of impurities during long-term storage”. In data set [4] (relative humidity of 70% (room temperature)), the “Hygroscopicity in a conventional environment” value was “so hygroscopic as to deliquesce”.
